Values joined by “and” are separate entries in the source; they are usually repeats but may differ in a detail not shown here. Identical values can stand only once.
Columns and labels:
C57BL/6J mice = assay: Multiple low-dose STZ-induced diabetes in WT C57BL/6J mice (random-fed blood glucose, GTT); assay type: in vivo, mouse; design: Random-fed blood glucose (Fig 1E) / GTT blood glucose (Fig 1F): unit not given here; conditions: for Random-fed blood glucose (Fig 1E): 30 mg/kg i.p. + STZ; for Random-fed blood glucose (Fig 1E) / GTT blood glucose (Fig 1F): listed as ML355; for GTT blood glucose (Fig 1F): Control (C57BL/6J)
12-LOX products = assay: Serum lipidomics (LC-MS/MS) of 12-LOX and non-12-LOX products in NOD.hALOX12 mice; assay type: in vivo, mouse
Description: Lipidomics analysis (by LC-MS/MS) was performed for a series of 12-LOX products resulting from different fatty acid substrates (Figure 2A).

[1] = Pharmacokinetics after single p.o. dose in C57BL/6J mice (plasma LC-MS/MS)
[2] = female NOD.hALOX12 mice, 30 mg/kg p.o., 1 week
[3] = serum, individual animals, listed as VLX
[4] = C57BL/6J, mouse, plasma, po, 30 mg/kg

## COc1cccc(CNc2ccc(S(=O)(=O)Nc3nc4ccccc4s3)cc2)c1O [VLX-1005]
C57BL/6J mice; C57BL/6J, day 0, individual mice
  Random-fed blood glucose (Fig 1E): 180 and 167 and 192 and 187
C57BL/6J mice; C57BL/6J, day 5, individual mice
  Random-fed blood glucose (Fig 1E): 172 and 214 and 232 and 221
C57BL/6J mice; C57BL/6J, day 10, individual mice
  Random-fed blood glucose (Fig 1E): 253 and 280 and 275 and 278
C57BL/6J mice; C57BL/6J, day 15, individual mice
  Random-fed blood glucose (Fig 1E): 347 and 298 and 284 and 335
C57BL/6J mice; C57BL/6J, day 22, individual mice
  Random-fed blood glucose (Fig 1E): 347 and 428 and 437 and 367
C57BL/6J mice; C57BL/6J, day 27, individual mice
  Random-fed blood glucose (Fig 1E): 487 and 478 and 512 and 486
C57BL/6J mice; C57BL/6J, day -5, individual mice
  Random-fed blood glucose (Fig 1E): 190 and 213 and 199 and 201
C57BL/6J mice; C57BL/6J, 30 mg/kg i.p., day 4 after STZ, individual mice
  GTT AUC (Fig 1G): 44930 and 36610 and 49530 and 43880
C57BL/6J mice; 30 mg/kg i.p., day 4 after STZ, 0 min after glucose, individual mice
  GTT blood glucose (Fig 1F): 164 and 184 and 175 and 154
C57BL/6J mice; 30 mg/kg i.p., day 4 after STZ, 10 min after glucose, individual mice
  GTT blood glucose (Fig 1F): 268 and 395 and 398 and 425
C57BL/6J mice; 30 mg/kg i.p., day 4 after STZ, 20 min after glucose, individual mice
  GTT blood glucose (Fig 1F): 532 and 602 (2×) and 658
C57BL/6J mice; 30 mg/kg i.p., day 4 after STZ, 30 min after glucose, individual mice
  GTT blood glucose (Fig 1F): 682 and 563 and 602 and 586
C57BL/6J mice; 30 mg/kg i.p., day 4 after STZ, 60 min after glucose, individual mice
  GTT blood glucose (Fig 1F): 547 and 425 and 594 and 493
C57BL/6J mice; 30 mg/kg i.p., day 4 after STZ, 90 min after glucose, individual mice
  GTT blood glucose (Fig 1F): 459 and 369 and 530 and 452
C57BL/6J mice; 30 mg/kg i.p., day 4 after STZ, 120 min after glucose, individual mice
  GTT blood glucose (Fig 1F): 366 and 256 and 369 and 398
C57BL/6J mice; male WT C57BL/6J mice, 30 mg/kg i.p. daily peri-STZ
  Glycemic outcome after STZ: became overtly hyperglycemic
12-LOX products; [2]
  Serum 12-HEPE level vs vehicle: not significantly changed
  Serum 12-HETE level vs vehicle: significantly reduced
  Serum 13-HODE level vs vehicle: significantly reduced
  Serum 14-HDHA level vs vehicle: significantly reduced
  Serum 17-HDHA level vs vehicle: significantly reduced
12-LOX products; [3]
  12-HEPE (Fig 2B): 14.181 and 5.614 and 0.079 and 3.392 and 10.786
  12-HETE (Fig 2B): 1108.62 and 574.602 and 13.903 and 321.764 and 853.064
  13(S)-HODE (Fig 2B): 213.641 and 75.17 and 53.113 and 81.494 and 90.355
  14-HDHA (Fig 2B): 76.057 and 30.285 and 4.719 and 24.172 and 46.818
  15-HETE (Fig 2B): 21.905 and 9.387 and 6.557 and 15.336 and 15.324
  17-HDHA (Fig 2B): 7.358 and 2.244 and 2.092 and 3.507 and 3.423
[1]; C57BL/6J mice, 30 mg/kg p.o., mean ± SD
  AUC%extrap_obs: 0.342 ± 0.133%
[1]; [4]
  AUC(0-inf): 15100 ng·h/mL
  AUC(0-t): 15000 ng·h/mL
  Cmax: 13300 ng/mL
  MRT inf: 2.57 ± 0.38 h
  half-life: 194 ± 4.2 min
